Test results taken from BindingDB's records for doi:10.1021/jf000548p (Institut Pasteur Korea, 2020).
pIC50: −log10 of the molar value.

Columns and labels:
[1] = biological target: Cytochrome P450 3A4 (Homo sapiens, UniProt P08684); experiment: Inhibition of CYP3A4 (unknown origin)
[2] = biological target: Cytochrome P450 2D6 (Homo sapiens, UniProt P10635); experiment: Inhibition of CYP2D6 (unknown origin)
[3] = biological target: T1, Cytochrome P450 1A2 (Homo sapiens, UniProt P05177); experiment: Inhibition of CYP1A2 (unknown origin)
T1 sequence (P05177 whole entry): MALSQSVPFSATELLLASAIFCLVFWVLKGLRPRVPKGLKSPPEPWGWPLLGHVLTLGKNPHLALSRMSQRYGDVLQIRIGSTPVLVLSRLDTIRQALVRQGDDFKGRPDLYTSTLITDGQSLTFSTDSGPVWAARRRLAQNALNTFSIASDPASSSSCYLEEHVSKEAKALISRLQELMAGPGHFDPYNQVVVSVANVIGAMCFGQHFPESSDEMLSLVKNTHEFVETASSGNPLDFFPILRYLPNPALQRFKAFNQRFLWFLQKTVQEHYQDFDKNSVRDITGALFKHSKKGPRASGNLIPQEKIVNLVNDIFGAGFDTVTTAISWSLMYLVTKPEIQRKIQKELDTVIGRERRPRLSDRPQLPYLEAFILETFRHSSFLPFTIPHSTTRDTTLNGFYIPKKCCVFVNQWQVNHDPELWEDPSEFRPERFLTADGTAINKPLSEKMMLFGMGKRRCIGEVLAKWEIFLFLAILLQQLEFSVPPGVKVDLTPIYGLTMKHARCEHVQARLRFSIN

[4] = biological target: Cytochrome P450 2C9 (Homo sapiens, UniProt P11712); experiment: Inhibition of CYP2C9 (unknown origin)
[5] = biological target: Cytochrome P450 2C19 (Homo sapiens, UniProt P33261); experiment: Inhibition of CYP2C19 (unknown origin)
[6] = biological target: Potassium voltage-gated channel subfamily H member 2 (Homo sapiens, UniProt Q12809); experiment: Inhibition of hERG
Potassium voltage-gated channel subfamily H member 2, sequence (Q12809 whole entry): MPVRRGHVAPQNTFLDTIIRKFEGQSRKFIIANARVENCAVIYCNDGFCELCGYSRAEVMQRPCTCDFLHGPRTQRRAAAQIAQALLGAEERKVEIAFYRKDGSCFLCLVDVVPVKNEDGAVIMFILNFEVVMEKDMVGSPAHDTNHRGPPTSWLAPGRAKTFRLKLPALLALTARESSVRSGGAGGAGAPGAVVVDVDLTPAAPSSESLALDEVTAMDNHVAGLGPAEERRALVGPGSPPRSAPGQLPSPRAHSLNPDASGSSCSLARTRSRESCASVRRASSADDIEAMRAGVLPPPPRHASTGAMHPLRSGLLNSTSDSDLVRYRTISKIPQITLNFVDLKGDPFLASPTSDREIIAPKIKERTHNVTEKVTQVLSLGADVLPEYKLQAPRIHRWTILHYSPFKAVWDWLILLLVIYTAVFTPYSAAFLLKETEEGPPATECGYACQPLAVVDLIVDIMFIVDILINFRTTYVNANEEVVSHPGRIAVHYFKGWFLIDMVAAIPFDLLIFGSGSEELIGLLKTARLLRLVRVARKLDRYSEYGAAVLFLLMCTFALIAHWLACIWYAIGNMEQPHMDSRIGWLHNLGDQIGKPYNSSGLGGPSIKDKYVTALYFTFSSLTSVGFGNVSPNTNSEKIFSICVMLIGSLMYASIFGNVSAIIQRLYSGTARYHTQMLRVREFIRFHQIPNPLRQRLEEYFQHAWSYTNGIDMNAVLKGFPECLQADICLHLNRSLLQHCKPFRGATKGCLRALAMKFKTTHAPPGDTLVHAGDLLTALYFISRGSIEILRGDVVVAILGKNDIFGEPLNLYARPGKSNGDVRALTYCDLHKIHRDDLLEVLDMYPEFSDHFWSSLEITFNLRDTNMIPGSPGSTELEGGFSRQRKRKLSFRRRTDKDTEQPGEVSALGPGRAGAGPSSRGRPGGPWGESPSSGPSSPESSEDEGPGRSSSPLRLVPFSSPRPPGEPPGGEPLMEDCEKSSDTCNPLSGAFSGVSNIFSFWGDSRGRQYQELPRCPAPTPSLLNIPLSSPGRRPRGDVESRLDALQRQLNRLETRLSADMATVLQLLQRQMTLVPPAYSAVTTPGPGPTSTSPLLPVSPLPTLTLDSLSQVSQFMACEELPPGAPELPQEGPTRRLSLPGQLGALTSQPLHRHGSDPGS

Cytochrome P450 2D6, sequence (P10635 whole entry): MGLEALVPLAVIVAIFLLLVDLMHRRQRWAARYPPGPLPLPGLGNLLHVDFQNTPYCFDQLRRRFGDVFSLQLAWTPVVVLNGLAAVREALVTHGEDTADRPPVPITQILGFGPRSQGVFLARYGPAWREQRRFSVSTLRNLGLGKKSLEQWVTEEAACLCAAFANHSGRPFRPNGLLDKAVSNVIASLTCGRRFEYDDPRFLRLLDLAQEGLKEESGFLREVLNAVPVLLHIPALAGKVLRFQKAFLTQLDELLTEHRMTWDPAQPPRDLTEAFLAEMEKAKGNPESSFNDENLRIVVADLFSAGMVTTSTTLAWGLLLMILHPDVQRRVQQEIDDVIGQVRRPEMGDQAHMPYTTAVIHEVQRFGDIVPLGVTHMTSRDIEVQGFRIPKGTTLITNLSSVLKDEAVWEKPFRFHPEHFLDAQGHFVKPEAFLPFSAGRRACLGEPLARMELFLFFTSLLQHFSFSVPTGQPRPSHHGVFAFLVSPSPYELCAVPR
Cytochrome P450 2C9, sequence (P11712 whole entry): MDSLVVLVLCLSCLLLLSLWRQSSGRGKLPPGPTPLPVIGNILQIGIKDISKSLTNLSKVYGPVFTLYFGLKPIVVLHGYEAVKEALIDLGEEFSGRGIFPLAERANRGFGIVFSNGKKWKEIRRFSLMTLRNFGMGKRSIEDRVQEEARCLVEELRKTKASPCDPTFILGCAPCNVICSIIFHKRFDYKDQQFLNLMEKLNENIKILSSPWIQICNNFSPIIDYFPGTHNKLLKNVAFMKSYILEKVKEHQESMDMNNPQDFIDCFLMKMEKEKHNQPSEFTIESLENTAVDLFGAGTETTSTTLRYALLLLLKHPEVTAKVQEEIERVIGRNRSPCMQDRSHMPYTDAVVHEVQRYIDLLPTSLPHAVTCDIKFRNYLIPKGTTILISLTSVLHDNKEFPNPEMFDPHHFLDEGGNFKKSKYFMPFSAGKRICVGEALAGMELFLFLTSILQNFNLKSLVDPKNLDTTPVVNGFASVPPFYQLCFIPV
Cytochrome P450 3A4, sequence (P08684 whole entry): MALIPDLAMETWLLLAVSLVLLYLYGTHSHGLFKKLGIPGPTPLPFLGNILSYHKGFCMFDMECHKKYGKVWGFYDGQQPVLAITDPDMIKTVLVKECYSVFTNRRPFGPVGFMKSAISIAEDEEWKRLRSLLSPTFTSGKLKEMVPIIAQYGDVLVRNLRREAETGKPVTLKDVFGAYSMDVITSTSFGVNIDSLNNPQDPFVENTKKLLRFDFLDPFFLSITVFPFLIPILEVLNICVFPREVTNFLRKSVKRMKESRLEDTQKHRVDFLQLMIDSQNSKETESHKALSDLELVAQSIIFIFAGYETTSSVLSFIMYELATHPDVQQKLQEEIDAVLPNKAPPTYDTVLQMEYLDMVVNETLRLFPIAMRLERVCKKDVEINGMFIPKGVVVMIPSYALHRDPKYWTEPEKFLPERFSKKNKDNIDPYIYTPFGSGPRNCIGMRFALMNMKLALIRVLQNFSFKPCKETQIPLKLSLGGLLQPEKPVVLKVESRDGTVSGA
Cytochrome P450 2C19, sequence (P33261 whole entry): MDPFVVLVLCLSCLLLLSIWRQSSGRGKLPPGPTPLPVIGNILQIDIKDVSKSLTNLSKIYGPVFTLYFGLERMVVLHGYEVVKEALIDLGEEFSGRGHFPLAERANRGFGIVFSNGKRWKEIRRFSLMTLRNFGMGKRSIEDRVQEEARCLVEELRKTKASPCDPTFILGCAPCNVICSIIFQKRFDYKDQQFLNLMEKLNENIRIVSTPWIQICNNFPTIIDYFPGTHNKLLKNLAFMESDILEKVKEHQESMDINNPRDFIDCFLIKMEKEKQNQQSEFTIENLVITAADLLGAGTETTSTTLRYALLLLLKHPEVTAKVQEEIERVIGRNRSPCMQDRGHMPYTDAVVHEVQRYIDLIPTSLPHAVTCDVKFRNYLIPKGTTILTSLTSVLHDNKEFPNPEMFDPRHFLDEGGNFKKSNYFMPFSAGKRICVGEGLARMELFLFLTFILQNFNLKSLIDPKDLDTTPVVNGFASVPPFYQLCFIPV

Row | SMILES | pIC50 [1] | pIC50 [2] | pIC50 [3] | pIC50 [4] | pIC50 [5] | pIC50 [6]
1 | Cc1nc2cc(NC(=O)c3cc4sc(N5CCC(C(=O)N(C)C)CC5)nc4s3)ccc2o1 | < 4.30 | < 4.30 | < 4.30 | < 4.30 | < 4.30 | < 4.52
2 | O=C(Nc1ccc(-c2ccc(F)cn2)cc1)c1cc2sc(NCCN3CCOCC3)nc2s1 | 5.16 | 5.16 | < 4.00 | 5.13 | < 4.00 | 4.56
